Common to all, as to assay type: cell-based
In assay [1] the test system is human iPS cells (201B7 strain). The assay can be described thus: Bright field observation of cell aggregates in suspension culture (neuroepithelium formation). The note with it: day 18. As to the method:
The thus-prepared subconfluent human iPS cells were treated with the cell dispersion solution by using TrypLE Select (manufactured by Life Technologies), further dispersed into single cells by pipetting operation, and the above human iPS cells dispersed into single cells were suspended in 100 μl of a serum-free medium at 1.2×10^4 cells per well of a non-cell-adhesive 96-well culture plate (PrimeSurface 96V-bottom plate, SUMITOMO BAKELITE). Thereafter, the cells were subjected to suspension culturing at 37° C., 5% CO2. As the serum-free medium (gfCDM+KSR) therefor, a serum-free medium which is a 1:1 mixture of F-12 medium and IMDM medium supplemented with 10% KSR, 450 μM 1-monothioglycerol, 1× Chemically defined lipid concentrate was used. At the time of the start of suspension culturing (day 0 after the start of suspension culturing, start of step 2), a serum-free medium supplemented with SAG (final concentration […]) as a Shh signal transduction pathway activating substance and Y27632 (20 μM) was used (FIG. 5A-D). By day 2 after the start of suspension culturing, cell aggregates were formed. On day 3 after the start of suspension culturing, a serum-free medium (50 μl) free of Y27632 and SAG was added. […] The thus-prepared cell aggregates were subjected to bright field observation under an inverted microscope (BIOREVO manufactured by KEYENCE) on day 18 after the start of suspension culturing.
(§1) The thus-prepared subconfluent human iPS cells were treated with the cell dispersion solution by using TrypLE Select (manufactured by Life Technologies), further dispersed into single cells by pipetting operation, and the above human iPS cells dispersed into single cells were suspended in 100 μl of a serum-free medium at 1.0×10^4 cells per well of a non-cell-adhesive 96-well culture plate (SUMILON SPHEROID V-bottom plate PrimeSurface 96V-bottom plate, SUMITOMO BAKELITE). Thereafter, the cells were subjected to suspension culturing at 37° C., 5% CO2. As the serum-free medium (gfCDM+KSR) therefor, a serum-free medium which is a 1:1 mixture of F-12 medium and IMDM medium supplemented with 10% KSR, 450 μM 1-monothioglycerol, 1× Chemically defined lipid concentrate was used. At the time of the start of suspension culturing (day 0 after the start of suspension culturing, start of step 2), the above serum-free medium supplemented with Y27632 (final concentration 20 μM) and further supplemented with SAG (final concentration 30 nM), Purmorphamine (manufactured by Wako, final concentration 0.2 μM), or human recombinant Shh (manufactured by R&D, Recombinant N-Terminus, final concentration 50 ng/ml) as a Shh signal transduction pathway activating substance was used (FIG. 8). On day 2 after the start of suspension culturing, a cell aggregates were formed. […]

Assay [2] deals with human iPS cells (DSPC-3 strain). Described as above. The note with it: Example 8; StemFit; SAG 300 nM day 0; day 22. How it is done:
as §1, with “at 1.2×10^4” for “at 1.0×10^4”, “SAG” for “SAG (final concentration 30 nM), Purmorphamine (manufactured by Wako, final concentration 0.2 μM), or human recombinant Shh (manufactured by R&D, Recombinant N-Terminus, final concentration 50 ng/ml)”, “as an exogenous” for “as a”, “substance (final concentration 300 nM), or not supplemented with SAG (final concentration 0 nM)” for “substance”, “(FIG. 10).” for “(FIG. 8).”, “culturing,” for “culturing, a”

The test system of assay [3] is human iPS cells (201B7 strain). The assay can be described thus: Immunostaining of aggregate frozen sections for retinal tissue markers Chx10 and Rx. More on the design: proportion of Chx10-positive cells: dose or concentration left out as unconfirmed. The note with it: Example 3, Essential 8, SAG day 0, day 18. From the text:
Cell aggregates on day 18 after the start of suspension culturing were fixed with 4% para-formaldehyde to produce frozen sections. These frozen sections were immunostained for Chx10 (anti-Chx10 antibody, Exalpha, sheep), which is one of the retinal tissue markers, or Rx (anti-Rx antibody, manufactured by TAKARA, guinea pig), which is one of the retinal tissue markers.
Cell aggregates on day 18 after the start of suspension culturing were fixed with 4% para-formaldehyde to produce frozen sections. These frozen sections were immunostained for Chx10 (anti-Chx10 antibody, Exalpha, sheep), which is one of the retinal tissue markers.

With `CNC1CCC(N(Cc2cccc(-c3ccncc3)c2)C(=O)c2sc3ccccc3c2Cl)CC1` (stereo not drawn) [SAG], the “neuroepithelium formation (bright field)” value in assay [1] (Example 3, Essential 8, SAG 300 μM day 0, with or without BMP4 1.5 nM day 6) is reported as “neuroepithelium was formed”; in assay [1] (Example 6, StemFit, SAG 30 nM, Purmorphamine 0.2 μM or human recombinant Shh 50 ng/ml day 0, BMP4 1.5 nM day 3) it was “neuroepithelium was formed”. Besides, in assay [2], the “aggregate shape and neuroepithelium formation (bright field)” value was “cell aggregates were maintained, and neuroepithelium was formed”. The entries for the “proportion of Rx-positive cells in the total cells” value in assay [3] (BMP4 1.5 nM day 6) and in assay [3] (no BMP4) were “not less than 40%” and “not more than 3%”, respectively. For the same compound, the “proportion of Chx10-positive cells” value in assay [3] (no BMP4) is given as “not more than 3%”.

The record behind these values is patent publication US11214772B2, “Production method for retinal tissue” (SUMITOMO DAINIPPON PHARMA CO., LTD., priority 2014, dated 2022).
